Data set [1] can be described thus: Solubility in 2,2,3,3-tetrafluoropropanol. To be noted: 20 °C, organic solvent or mixture.
Data set [2] can be described thus: Thermal decomposition (TGA / DSC). Type of data set: physicochemical. The text has this: The optical and thermal properties of the thiazolyl-pyridinium based dye compounds were studied. The dyes show high absorption at the desired wavelengths. In addition, the shape of the absorption spectra, that still remains critical to the disc reflectivity and formation of clean mark edges, are composed of one major band, comprised in a range of from 350 to 500 nm, preferably of from 350 to 400 nm.
Sharp threshold of thermal decomposition within the required temperature range characterizes the new thiazolylpyridinium based dyes which are assumed to be desirable for the application in optical layers for optical data recording.

With `CC(C)[n+]1ccc(-c2nc(-c3ccccc3)cs2)cc1.[I-]` [Example 7, 1-isopropyl-4-[4-phenyl-thiazolyl-(2)]-pyridiniumiodide], the solubility in data set [1] was more than 50 mg/mL. Also, the “TGA (decomp.)” value in data set [2] amounted to 270 °C.

`COc1ccc(-c2csc(-c3cc[n+](C(C)C)cc3)n2)cc1` [Example 11]: the solubility in data set [1] is more than 50 mg/mL. Moreover, the “TGA (decomp.)” value in data set [2] amounted to 240 °C.

On to `C[n+]1ccc(-c2nc(-c3ccccc3)cs2)cc1.[I-]` [Example 9, 1-methyl-4-[4-phenyl-thiazolyl-(2)]-pyridinium iodide], for which, in data set [1], the solubility was more than 30 mg/mL. In addition, the “TGA (decomp.)” value in data set [2] stood at 260 °C.

Regarding `C[n+]1ccc(-c2nc3ccc(Cl)cc3s2)cc1.[I-]` [Example 12, 1-methyl-4-(6-chlor-benzothiazol-2-yl)pyridinium iodide], in data set [1], the solubility is more than 50 mg/mL. Also, in data set [2], the “TGA (decomp.)” value was found to be 244 °C.

With `C[n+]1ccc(-c2nc(C(C)(C)C)cs2)cc1.[I-]` [Example 8, 1-methyl-4-[4-tert-butyl-thiazolyl-(2)]-pyridiniumiodide], the solubility in data set [1] was more than 5e-05 mg/mL.

On to `COc1ccc(-c2csc(-c3cc[n+](C)cc3)n2)cc1.[I-]` [Example 10, 4-[4-(4-methoxy-phenyl)-thiazol-2-yl]-1-methyl-pyridinium iodide], for which the solubility in data set [1] is more than 50 mg/mL. The “TGA (decomp.)” value in data set [2] stood at 250 °C.

A word on the solubility: it is the dissolved amount per volume that the medium holds.

For the origin of these results see US7655767B2, “Use of thiazolyl-pyridinium based dyes in optical layers for optical data recording” (priority 2004, dated 2010).
